Among the data in paper PMC4872165, “Targeting human respiratory syncytial virus transcription anti-termination factor M2-1 to inhibit in vivo viral replication” (Scientific Reports, 2016) are IC50 values, retold here.

The assay concerns the target T1, hRSV RNA-dependent RNA polymerase (RdRp) complex with M2-1 (L, P, N, M2-1 minigenome) (Human respiratory syncytial virus A2, UniProt P04545).
T1 construct: pN, pP, pL and pM2-1 plasmids (T7 promoter) in BSR-T7/5 (BHK-21) cells with pM/Luc minigenome; strain printed for the virus only, not for the plasmids; M2-1 tetrameric; with RNA-directed RNA polymerase L; Phosphoprotein; Nucleoprotein
Kind of assay: hRSV minigenome luciferase reporter assay in transfected BSR-T7/[…] cells. It counts as cell-based.

T1 sequence (P04545 whole entry, looked up, one chain of several): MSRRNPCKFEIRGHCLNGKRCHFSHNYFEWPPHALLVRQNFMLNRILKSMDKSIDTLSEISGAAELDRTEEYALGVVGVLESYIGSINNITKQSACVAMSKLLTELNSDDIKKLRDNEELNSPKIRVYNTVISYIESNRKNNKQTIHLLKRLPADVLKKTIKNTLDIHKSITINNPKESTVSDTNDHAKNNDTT

In general, IC50 refers to the concentration at which inhibition is half-maximal. Higher therefore signals lower potency. On to `CC1=C2C[C@H]3[C@@H](CC=C4C[C@@H](O)CC[C@@]43C)[C@@H]2CC[C@]12O[C@@H]1C[C@H](C)CN[C@H]1[C@H]2C` [cyclopamine], for which the midpoint of inhibition, the IC50, lay at 380 nM.
